Tests used:
MM.1S myeloma cell line = experiment: AnnexinV-PI cytometry, apoptosis/viability upon LPC supplementation; format: cell-based; conditions: 10 μM LPC, 24 h, vs vehicle
Procedure: (§1) FIG. 5. Effects of LPC supplementation on MM cells viability. A) Viability of myeloma cell lines MM.1S or OPM2 or three samples of myeloma patient-derived CD138 positive cells upon 24 h incubation with vehicle or 10 μM LPC, as fold change of annexinV-propidium iodide double negative cells relative to vehicle alone. B) MTT assay of OPM2 cells upon 72 h supplementation with LPC, one representative experiment (n=6). Y axis: median 570-655 optic density (O.D.); error bars: standard deviation; asterisks: p<0.05 at two-tailed t-test for paired samples.
(§2) Myeloma cell lines (OPM2 and MM.1S) were cultured in RPMI1640 media (Gibco), supplemented with glutamax (1 mM), penicillin (100 U/ml), and streptomycin (100 μg/ml). Primary MM cells were obtained by CD138 positive immunomagnetic selection (Miltenyi) from bone marrow mononuclear cells. CD138^+ cells were cultured in 10% FBS and IL-6 (2 ng/ml). Apoptosis was detected by AnnexinV-PI (BD) cytometry (AccuriC6 cytometer, analyzed with FCS-express). For MTT assays, OPM2 cells were cultured with or without 10 μM LPC and FCS, incubated with 5 mg/ml MTT (Sigma), dissolved with DMSO and measured for ABS at 570-655 nm with an ELISA reader (Biorad).

[1] = test system: myeloma patient-derived CD138 positive cells; experiment: as above; format: cell-based; conditions: 10 μM LPC, 24 h, vs vehicle; three patient samples
Procedure: as §1, §2

OPM2 myeloma cell line = experiment: as above; format: cell-based; conditions: 10 μM LPC, 24 h, vs vehicle
Procedure: as §1, §2

OPM2 cells = experiment: MTT assay upon LPC supplementation; format: cell-based; conditions: 10 μM LPC, 72 h, with or without FCS; particularly upon serum starvation
Procedure: as §1, §2

[2] = test system: microvascular endothelial cell; conditions: in vitro; cited from earlier work
[3] = cited from earlier work
T cells = conditions: cited from earlier work
MM cells = conditions: phosphocholine administration; cited from earlier work

With lysophosphocholines [LPC] the “apoptosis (annexinV-propidium iodide)” value (MM.1S myeloma cell line) was “decrease apoptosis”, the “apoptosis (annexinV-propidium iodide)” value [1] was “decrease apoptosis” and the “apoptosis (annexinV-propidium iodide)” value (OPM2 myeloma cell line) was “decrease apoptosis”. The “viability (MTT, 570-655 O.D.)” value (OPM2 cells) was “increase viability”.
For “C3f: fragment of the C3 complement factor, sequence SSKITHRIHWESASLLR; detected fragment HWESASLL (listed as Homo sapiens)”, the “IGF1 signaling and microvascular endothelial cell proliferation” value [2] is listed as “actively modulate” and the “TGFβ-1 secretion by endothelial cells” value [2] is listed as “enhance TGFβ-1 secretion”.
For `CNCC(=O)O` [Sarcosine, Sarcosine (N-Methylglycine)], the “cancer-promoting in vitro activities” value [3] is given as “induction of migration, invasiveness, and up-regulation of pathogenic receptors”.
In the case of `Nc1c(O)cccc1C(=O)CC(N)C(=O)O` (stereo not shown) [3-hydroxykynurenine], the T cell depletion (T cells; in vitro and in vivo, transplanted mice) is given as “depleting in vitro and in vivo T cells” and the mismatched allograft tolerance (T cells; mouse, in vivo) is given as “promoting mismatched allograft tolerance”.
In the case of `C[N+](C)(C)CCOP(=O)([O-])O` [phosphocholine], the “rescue of MM cells from the mevalonate pathway inhibitor apomine” value (MM cells) is listed as “can rescue MM cells”.

Reference: patent US20150285805A1, “BIOMARKERS OF MULTIPLE MYELOMA DEVELOPMENT AND PROGRESSION” (priority 2012, published 2015)
